Molecules are shown by their SMILES. “And” between values parts separate entries of the source, which are not always exact repeats. Identical values can stand only once. Inconclusive results and toxic doses are left out.

We go through ten compounds from PubChem BioAssay AID250 (DTP/NCI, 2004).

The subject of the assay is BDF1 mice, L1210 leukemia sc, survival T/C. Briefly: NCI In Vivo Anticancer Drug Screen. Data for tumor model L1210 Leukemia (subcutaneous) in B6D2F1 (BDF1) mice. The conditions noted are these: endpoint: median survival time, higher = longer survival. The essentials:
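Transplantable tumor-bearing mice; survival or tumor size recorded; result = T/C, treated vs vehicle control.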

Where [1] appears, read: dose: 5.0 mg/kg/injection, schedule: Q01DX Z (sc), vehicle: saline.
Setting [2] is: dose: 8.4 mg/kg/injection, schedule: Q01DX Z (sc), vehicle: saline.
Setting [3] is: dose: 65.0 mg/kg/injection, schedule: Q01DX Z (sc), vehicle: saline.
The mark [4] stands for this setting: dose: 108.0 mg/kg/injection, schedule: Q01DX Z (sc), vehicle: saline.
Where [5] appears, read: dose: 180.0 mg/kg/injection, schedule: Q01DX Z (sc), vehicle: saline.
Setting [6] is: dose: 300.0 mg/kg/injection, schedule: Q01DX Z (sc), vehicle: saline.
The mark [7] stands for this setting: dose: 500.0 mg/kg/injection, schedule: Q01DX Z (sc), vehicle: saline.
[8] abbreviates: dose: 14.0 mg/kg/injection, schedule: Q01DX Z (sc), vehicle: carboxymethylcellulose (CMC).
The mark [9] stands for this setting: dose: 23.0 mg/kg/injection, schedule: Q01DX Z (sc), vehicle: carboxymethylcellulose (CMC).
The mark [10] stands for this setting: dose: 39.0 mg/kg/injection, schedule: Q01DX Z (sc), vehicle: carboxymethylcellulose (CMC).
Where [11] appears, read: dose: 65.0 mg/kg/injection, schedule: Q01DX Z (sc), vehicle: carboxymethylcellulose (CMC).
Where [12] appears, read: dose: 108.0 mg/kg/injection, schedule: Q01DX Z (sc), vehicle: carboxymethylcellulose (CMC).
Where [13] appears, read: dose: 180.0 mg/kg/injection, schedule: Q01DX Z (sc), vehicle: carboxymethylcellulose (CMC).

For the compound `N[C@H](C(=O)O)[C@H]1ON=C(Cl)[C@@H]1O`, the T/C is, setting by setting: (dose: 8.0 mg/kg/injection, schedule: Q01DX009 (sc), vehicle: saline) 111 % of control; (dose: 32.0 mg/kg/injection, schedule: Q01DX009 (sc), vehicle: saline) 150 % of control and 156 % of control; (dose: 64.0 mg/kg/injection, schedule: Q01DX009 (sc), vehicle: saline) 153 % of control and 156 % of control; (dose: 128.0 mg/kg/injection, schedule: Q01DX009 (sc), vehicle: saline) 156 % of control and 160 % of control; (dose: 256.0 mg/kg/injection, schedule: Q01DX009 (sc), vehicle: saline) 157 % of control and 176 % of control; (dose: 512.0 mg/kg/injection, schedule: Q01DX009 (sc), vehicle: saline) 176 % of control. Also, the T/C (dose: 1024.0 mg/kg/injection, schedule: Q01DX009 (sc), vehicle: saline) is 177 % of control.
In the case of `CO[C@H](C(=O)[C@@H](O)[C@@H](C)O)[C@@H]1Cc2cc3cc(OC4CC(OC5CC(O)C(O)C(C)O5)C(O)C(C)O4)c(C)c(O)c3c(O)c2C(=O)[C@H]1OC1CC(OC2CC(OC3CC(C)(O)C(O)C(C)O3)C(O)C(C)O2)C(O)C(C)O1` (some centres not stated), the T/C by setting is: (dose: 0.12 mg/kg/injection, schedule: Q01DX009 (ip), vehicle: water) 105 % of control; (dose: 0.12 mg/kg/injection, schedule: Q01DX009 (sc), vehicle: water) 103 % of control; (dose: 0.25 mg/kg/injection, schedule: Q01DX009 (ip), vehicle: water) 94 % of control; (dose: 0.25 mg/kg/injection, schedule: Q01DX009 (sc), vehicle: water) 100 % of control and 103 % of control; (dose: 0.5 mg/kg/injection, schedule: Q01DX009 (sc), vehicle: water) 95 % of control and 110 % of control; (dose: 1.0 mg/kg/injection, schedule: Q01DX009 (ip), vehicle: water) 93 % of control. Moreover, the T/C is 101 % of control (dose: 1.0 mg/kg/injection, schedule: Q01DX009 (sc), vehicle: water) and 96 % of control (dose: 2.0 mg/kg/injection, schedule: Q01DX009 (sc), vehicle: water).
With `N=[N+]=CC(=O)OCC(N)C(=O)O` (configuration not stated), the T/C was 105 % of control (dose: 3.0 mg/kg/injection, schedule: Q01DX Z (sc), vehicle: saline); 110 % of control (dose: 4.0 mg/kg/injection, schedule: Q01DX Z (sc), vehicle: water); 110 % of control under setting [1]; 110 % of control (dose: 6.72 mg/kg/injection, schedule: Q01DX Z (sc), vehicle: water); 172 % of control (dose: 8.0 mg/kg/injection, schedule: Q01DX Z (sc), vehicle: water); 100 % of control (dose: 8.0 mg/kg/injection, schedule: Q02DX Z (sc), vehicle: water). Besides, the T/C is 110 % of control under setting [2]; 110 % of control (dose: 11.2 mg/kg/injection, schedule: Q01DX Z (sc), vehicle: water); 120 % of control (dose: 14.0 mg/kg/injection, schedule: Q01DX Z (sc), vehicle: saline); 168 % of control (dose: 16.0 mg/kg/injection, schedule: Q01DX Z (sc), vehicle: water); 100 % of control (dose: 16.0 mg/kg/injection, schedule: Q02DX Z (sc), vehicle: water); 120 % of control (dose: 31.1 mg/kg/injection, schedule: Q01DX Z (sc), vehicle: water). The T/C runs as follows: (dose: 32.0 mg/kg/injection, schedule: Q02DX Z (sc), vehicle: water) 100 % of control; (dose: 64.0 mg/kg/injection, schedule: Q01DX Z (sc), vehicle: water) 118 % of control; under setting [3], 100 % of control; (dose: 86.1 mg/kg/injection, schedule: Q01DX Z (sc), vehicle: water) 110 % of control; (dose: 128.0 mg/kg/injection, schedule: Q02DX Z (sc), vehicle: water) 100 % of control.
`O=C(Nc1ccc(C2=NCCCN2)cc1)c1ccc(C(=O)Nc2ccc(C3=NCCCN3)cc2)cc1`: the T/C runs as follows: (dose: 3.0 mg/kg/injection, schedule: Q01DX Z (sc), vehicle: methylcellulose (MC)) 190 % of control; (dose: 5.0 mg/kg/injection, schedule: Q01DX Z (sc), vehicle: methylcellulose (MC)) 195 % of control; (dose: 8.4 mg/kg/injection, schedule: Q01DX Z (sc), vehicle: methylcellulose (MC)) 165 % of control; (dose: 14.0 mg/kg/injection, schedule: Q01DX Z (sc), vehicle: methylcellulose (MC)) 155 % of control; (dose: 23.0 mg/kg/injection, schedule: Q01DX Z (sc), vehicle: methylcellulose (MC)) 150 % of control.
As for `Cc1cc(N)c2cc(NC(=O)CCCCCCCCC(=O)Nc3ccc4nc(C)cc(N)c4c3)ccc2n1`, the T/C under setting [3] is 91 % of control; the T/C under setting [4] was 91 % of control; the T/C (dose: 130.0 mg/kg/injection, schedule: Q01DX Z (sc), vehicle: saline) was 91 % of control; the T/C under setting [5] was 91 % of control; the T/C (dose: 216.0 mg/kg/injection, schedule: Q01DX Z (sc), vehicle: saline) was 91 % of control; the T/C under setting [6] was 91 % of control. The T/C runs as follows: (dose: 360.0 mg/kg/injection, schedule: Q01DX Z (sc), vehicle: saline) 91 % of control; under setting [7], 95 % of control; (dose: 600.0 mg/kg/injection, schedule: Q01DX Z (sc), vehicle: saline) 91 % of control; (dose: 1000.0 mg/kg/injection, schedule: Q01DX Z (sc), vehicle: saline) 95 % of control.
As for `O=P(N1CCOCC1)(N1CC1)N1CC1`, the T/C by setting is: under setting [1], 96 % of control and 110 % of control; under setting [2], 100 % of control and 110 % of control; (dose: 23.0 mg/kg/injection, schedule: Q01DX Z (sc), vehicle: saline) 160 % of control and 164 % of control; under setting [3], 112 % of control.
Regarding `CCCC(=O)OCC1OC(n2cnc3c(=S)nc(N)[nH]c32)C(OC(=O)CCC)C1OC(=O)CCC` (configuration not stated), the T/C is 112 % of control under setting [8]; 100 % of control under setting [9]; 112 % of control under setting [10]; 175 % of control under setting [11]; 168 % of control under setting [12]; 150 % of control under setting [13].
`COc1cc2c3c(c4ccc(OC)c(OC)c4c2cc1OC)CN1CCC[C@@H]1C3`: the T/C (dose: 3.0 mg/kg/injection, schedule: Q01DX Z (sc), vehicle: carboxymethylcellulose (CMC)) was 100 % of control; the T/C (dose: 5.0 mg/kg/injection, schedule: Q01DX Z (sc), vehicle: carboxymethylcellulose (CMC)) was 100 % of control; the T/C (dose: 8.4 mg/kg/injection, schedule: Q01DX Z (sc), vehicle: carboxymethylcellulose (CMC)) is 100 % of control; the T/C under setting [8] was 95 % of control; the T/C under setting [9] is 90 % of control and 105 % of control; the T/C under setting [10] was 100 % of control. Also, the T/C is 110 % of control under setting [11], 105 % of control under setting [12] and 115 % of control under setting [13].
Consider `O=c1[nH]c(=O)n(C2OC(CO)C(O)C2O)cc1I` (configuration not stated), for which the T/C by setting is: (dose: 39.0 mg/kg/injection, schedule: Q01DX Z (sc), vehicle: saline) 100 % of control; under setting [3], 100 % of control; under setting [4], 100 % of control; under setting [5], 94 % of control and 100 % of control; under setting [6], 100 % of control; under setting [7], 100 % of control and 105 % of control. Also, the T/C by setting is: (dose: 833.0 mg/kg/injection, schedule: Q01DX Z (sc), vehicle: saline) 94 % of control; (dose: 1388.0 mg/kg/injection, schedule: Q01DX Z (sc), vehicle: saline) 94 % of control.
Take `CCNc1nncs1`: the T/C (dose: 65.0 mg/kg/injection, schedule: Q01DX Z (sc), vehicle: other) is 120 % of control; the T/C (dose: 180.0 mg/kg/injection, schedule: Q01DX Z (sc), vehicle: other) was 150 % of control; the T/C (dose: 300.0 mg/kg/injection, schedule: Q01DX Z (sc), vehicle: other) was 175 % of control.
